Measured values taken from patent publication US7834030B2, “Phenyl-[1,2,4]-oxadiazol-5-one derivatives, pharmaceutical compositions and therapeutic use thereof” (Sanofi-Aventis, priority 2005, dated 2010).

molecular target: T1, human PPARalpha (Homo sapiens, UniProt Q07869); assay: cellular PPARalpha assay (GAL4 luciferase reporter, stably transfected HEK cell line); assay type: cell-based
T1 construct: human PPARalpha receptor (amino acids S167-Y468); expressed in transfected cells; plasmid pcDNA3
T1 sequence (Q07869 167-468): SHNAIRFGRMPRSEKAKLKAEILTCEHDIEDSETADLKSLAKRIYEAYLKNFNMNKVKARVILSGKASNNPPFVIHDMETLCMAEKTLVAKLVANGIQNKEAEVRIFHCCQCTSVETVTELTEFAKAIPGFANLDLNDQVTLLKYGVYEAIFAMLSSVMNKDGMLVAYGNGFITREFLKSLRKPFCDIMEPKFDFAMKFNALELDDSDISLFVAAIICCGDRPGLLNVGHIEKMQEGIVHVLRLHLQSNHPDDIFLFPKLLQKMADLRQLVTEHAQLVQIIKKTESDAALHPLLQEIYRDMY
Protocol: The activity of the compounds was tested through the determination of EC50 values of PPAR agonists in the cellular PPARalpha assay. The potency of substances which bind to human PPARalpha and activate it in an agonistic manner was analyzed using a stably transfected HEK cell line (HEK=human embryo kidney) which is referred to here as PPARalpha reporter cell line. It contains two genetic elements, a luciferase reporter element (pdeltaM-GAL4-Luc-Zeo) and a PPARalpha fusion protein (GR-GAL4-humanPPARalpha-LBD) which mediates expression of the luciferase reporter element depending on a PPARalpha ligand. The stably and constitutively expressed fusion protein GR-GAL4-humanPPARalpha-LBD binds in the cell nucleus of the PPARalpha reporter cell line via the GAL4 protein portion to the GAL4 DNA binding motifs 5′-upstream of the luciferase reporter element which is stably integrated in the genome of the cell line. There is only weak expression of the luciferase reporter gene in the absence of a PPARalpha ligand if fatty acid-depleted fetal calf serum (cs-FCS) is used in the assay. PPARalpha ligands bind and activate the PPARalpha fusion protein and thereby stimulate the expression of the luciferase reporter gene. The luciferase which is formed can be detected by means of chemiluminescence via an appropriate substrate.
The PPARalpha reporter cell line was prepared in two stages. Firstly, the luciferase reporter element was constructed and stably transfected into HEK cells. For this purpose, five binding sites of the yeast transcription factor GAL4 (Accession # AF264724) were cloned in 5′-upstream of a 68 bp-long minimal MMTV promoter (Accession # V01175). The minimal MMTV promoter section contains a CCAAT box and a TATA element in order to enable efficient transcription by RNA polymerase II. The cloning and sequencing of the GAL4-MMTV construct took place in analogy to the description of Sambrook J. et. al. (Molecular cloning, Cold Spring Harbor Laboratory Press, 1989). Then the complete Photinus pyralis gene (Accession # M15077) was cloned in 3′-downstream of the GAL4-MMTV element. After sequencing, the luciferase reporter element consisting of five GAL4 binding sites, MMTV promoter and luciferase gene was recloned into a plasmid which confers zeocin resistance in order to obtain the plasmid pdeltaM-GAL4-Luc-Zeo. This vector was transfected into HEK cells in accordance with the statements in Ausubel, F. M. et al. (Current protocols in molecular biology, Vol. 1-3, John Wiley & Sons, Inc., 1995).
In a second step, the PPARalpha fusion protein (GR-GAL4-humanPPARalpha-LBD was introduced into the stable cell clone described. For this purpose, initially the cDNA coding for the N-terminal 76 amino acids of the glucocorticoid receptor (Accession # P04150) was linked to the cDNA section coding for amino acids 1-147 of the yeast transcription factor GAL4 (Accession # P04386). The cDNA of the ligand-binding domain of the human PPARalpha receptor (amino acids S167-Y468; Accession # S74349) was cloned in at the 3′-end of this GR-GAL4 construct. The fusion construct prepared in this way (GR-GAL4-humanPPARalpha-LBD) was recloned into the plasmid pcDNA3 (Invitrogen) in order to enable constitutive expression therein by the cytomegalovirus promoter. This plasmid was linearized with a restriction endonuclease and stably transfected into the previously described cell clone containing the luciferase reporter element. The finished PPARalpha reporter cell line which contains a luciferase reporter element and constitutively expresses the PPARalpha fusion protein (GR-GAL4-human PPARalpha-LBD) was isolated by selection with zeocin (0.5 mg/ml) and G418 (0.5 mg/ml).
The activity of PPARalpha agonists was determined in a 3-day assay, which is described below: […]

SMILES | EC50 [nM]
CC[C@@H](Oc1cc(OC)c(-c2noc(=O)[nH]2)cc1F)c1sc(-c2ccc(C(F)(F)F)cc2)nc1C [(+)-40, (+)-3-(5-Fluoro-2-methoxy-4-{(R)-1-[4-methyl-2-(4-trifluoromethyl-phenyl)-thiazol-5-yl]-propoxy}-phenyl)-4H-1,2,4-oxadiazol-5-one] | 677
Cc1nc(-c2ccc(C(F)(F)F)cc2)sc1C(OCc1ccc(-c2noc(=O)[nH]2)cc1)C(F)(F)C1CC1 (racemic) [Example 32, 3-(4-{2-Cyclopropyl-2,2-difluoro-1-[4-methyl-2-(4-trifluoromethyl-phenyl)-thiazol-5-yl]-ethoxymethyl}-phenyl)-4H-[1,2,4]oxadiazol-5-one] | > 33000
CCCCC(Cc1ccc(-c2noc(=O)[nH]2)c(F)c1)c1sc(-c2ccc(C(F)(F)F)cc2)nc1C (racemic) [Example 34, 3-(2-Fluoro-4-{2-[4-methyl-2-(4-trifluoromethyl-phenyl)-thiazol-5-yl]-hexyl}-phenyl)-4H-[1,2,4]oxadiazol-5-one] | 1070
CC[C@@H](Oc1ccc(-c2noc(=O)[nH]2)c(OC(F)F)c1)c1sc(-c2ccc(C(F)(F)F)cc2)nc1CN1CCC(C(F)(F)F)CC1 [(+)-45, (+)-3-(2-Difluoromethoxy-4-{(R)-1-[2-(4-trifluoromethyl-phenyl)-4-(4-trifluoromethyl-piperidin-1-ylmethyl)-thiazol-5-yl]-propoxy}-phenyl)-4H-1,2,4-oxadiazol-5-one] | 1230
CCC(Oc1ccc(-c2noc(=O)[nH]2)c(OC)c1)c1sc(-c2ccc(C(F)(F)F)cc2)nc1CN1CCC(C(F)(F)F)CC1 (racemic) [Example 42, 3-(2-Methoxy-4-{1-[2-(4-trifluoromethyl-phenyl)-4-(4-trifluoromethyl-piperidin-1-ylmethyl)-thiazol-5-yl]-propoxy}-phenyl)-4H-1,2,4-oxadiazol-5-one] | > 33000
Cc1nc(-c2ccc(C(F)(F)F)cc2)sc1C(OCc1ccc(-c2noc(=O)[nH]2)c2cccnc12)C(F)(F)F (racemic) [Example 25, 3-(8-{2,2,2-Trifluoro-1-[4-methyl-2-(4-trifluoromethyl-phenyl)-thiazol-5-yl]-ethoxymethyl}-quinolin-5-yl)-4H-[1,2,4]oxadiazol-5-one] | 544
Cc1nc(-c2ccc(C(F)(F)F)cc2)sc1C(OCc1ccc(-c2noc(=O)[nH]2)c(F)c1)C(F)(F)F (racemic) [Example 22, 3-(2-Fluoro-4-{2,2,2-trifluoro-1-[4-methyl-2-(4-trifluoromethyl-phenyl)-thiazol-5-yl]-ethoxymethyl}-phenyl)-4H-[1,2,4]oxadiazol-5-one] | 2640
Cc1nc(-c2ccc(C(F)(F)F)cc2)sc1C(OCc1ccc(-c2noc(=O)[nH]2)c(Cl)n1)C(F)(F)F (racemic) [Example 27, 3-(2-Chloro-6-{2,2,2-trifluoro-1-[4-methyl-2-(4-trifluoromethyl-phenyl)-thiazol-5-yl]-ethoxymethyl}-pyridin-3-yl)-4H-[1,2,4]oxadiazol-5-one] | 1210
Cc1nc(-c2ccc(C(F)(F)F)cc2)sc1C(Cc1ccccn1)Oc1ccc(-c2noc(=O)[nH]2)c(Cl)c1 (racemic) [Example 10, 3-(2-Chloro-4-{1-[4-methyl-2-(4-trifluoromethyl-phenyl)-thiazol-5-yl]-2-pyridin-2-yl-ethoxy}-phenyl)-4H-[1,2,4]oxadiazol-5-one] | 4380

These reach a lower EC50. Values come first.

EC50 [nM] | SMILES
307 | Cc1nc(-c2ccc(C(F)(F)F)cc2)sc1C(Oc1ccc(-c2noc(=O)[nH]2)c(Cl)c1)C(F)(F)F (racemic) [Example 20, 3-(2-Chloro-4-{2,2,2-trifluoro-1-[4-methyl-2-(4-trifluoromethyl-phenyl)-thiazol-5-yl]-ethoxy}-phenyl)-4H-[1,2,4]oxadiazol-5-one]
117 | CCC(Oc1ccc(-c2noc(=O)[nH]2)c(C2CC2)c1)c1sc(-c2ccc(C(F)(F)F)cc2)nc1C (racemic) [Example 16, 3-(2-Cyclopropyl-4-{1-[4-methyl-2-(4-trifluoromethyl-Phenyl)-thiazol-5-yl]-propoxy}-phenyl)-4H-[1,2,4]oxadiazol-5-one]
223 | CCC(Oc1ccc(-c2noc(=O)[nH]2)c(OC(F)F)c1)c1sc(-c2ccc(C(F)(F)F)cc2)nc1C (racemic) [Example 37, 3-(2-Difluoromethoxy-4-{1-[4-methyl-2-(4-trifluoromethyl-phenyl)-thiazol-5-yl]-propoxy}-phenyl)-4H-1,2,4-oxadiazol-5-one]
87 | CCC(Oc1ccc(-c2noc(=O)[nH]2)c(OCC(F)(F)F)c1)c1sc(-c2ccc(C(F)(F)F)cc2)nc1C (racemic) [Example 48, 3-[4-{1-[4-Methyl-2-(4-trifluoromethyl-phenyl)-thiazol-5-yl]-propoxy}-2-(2,2,2-trifluoro-ethoxy)-phenyl]-4H-1,2,4-oxadiazol-5-one]
269 | CCC(Oc1ccc(-c2noc(=O)[nH]2)c(F)c1)c1sc(-c2ccc(C(F)(F)F)cc2)nc1C (racemic) [Example 35, 3-(2-Fluoro-4-{1-[4-methyl-2-(4-trifluoromethyl-phenyl)-thiazol-5-yl]-propoxy}-phenyl)-4H-1,2,4-oxadiazol-5-one]
12 | CCC(Oc1ccc(-c2noc(=O)[nH]2)c(Cl)c1)c1sc(-c2ccc(C(F)(F)F)cc2)nc1C (racemic) [Example 4, 3-(2-Chloro-4-{1-[4-methyl-2-(4-trifluoromethyl-phenyl)-thiazol-5-yl]-propoxy}-phenyl)-4H-[1,2,4]oxadiazol-5-one]
